{"source": "patent US8071654B2", "about": "“Inhibitors of thromboxane formation and action” (priority 2000, dated 2011)", "key": {"human platelets": {"test_system": "human platelets", "assay": "PGH2-evoked platelet aggregation", "format": "cell-based", "details": "PGH2 100 ng; PBT-3 at various doses before PGH2", "description": "Venous blood was obtained from healthy human subjects who had not taken NSAID's for at least two weeks. Blood was drawn into plastic syringes containing ACD. It was immediately centrifuged at 23° at 200×g for 15 min. The platelet rich plasma was transferred into fresh plastic tubes and centrifuged at 400×g for 5 min. The supernatant was discarded and the platelet sediment was resuspended in fresh medium containing NaCl (137 mM), KCl (1 mM), NaH2PO4, glucose (5.5 mM), HEPES (20 mM) and CaCl2 (1 mM) and allowed to stand at room temperature for 30 min. A platelet count was made, which determined the volume of platelet suspension needed to make up 350×10^6 cells for each measurement. The aliquot was diluted with medium to make 0.5 ml/assay/cuvette. […]\n0.5 ml of platelet suspension was added to siliconized glass tubes (four at a time) and heated with magnetic stirring to 37° for 1 min in a platelet aggregometer (PAP-4C). […] The response was recorded for the next 5 min. […] In experiments where the conversion of tritiated PGH2 was to be monitored, the procedure described above was repeated with tritiated PGH2 instead of unlabeled PGH2. After extraction of the sample as described above, the radiolabeled compounds were analyzed by TLC. Dose response curves for varying amounts of test compounds were generated and the data expressed as % inhibition of collagen-induced platelet aggregation. […]"}, "COX-1": {"molecular_target": "T1, COX-1 (Ovis aries, UniProt P05979)", "T1 construct": "purchased Cayman Chemicals", "T1 sequence (P05979 25-600)": "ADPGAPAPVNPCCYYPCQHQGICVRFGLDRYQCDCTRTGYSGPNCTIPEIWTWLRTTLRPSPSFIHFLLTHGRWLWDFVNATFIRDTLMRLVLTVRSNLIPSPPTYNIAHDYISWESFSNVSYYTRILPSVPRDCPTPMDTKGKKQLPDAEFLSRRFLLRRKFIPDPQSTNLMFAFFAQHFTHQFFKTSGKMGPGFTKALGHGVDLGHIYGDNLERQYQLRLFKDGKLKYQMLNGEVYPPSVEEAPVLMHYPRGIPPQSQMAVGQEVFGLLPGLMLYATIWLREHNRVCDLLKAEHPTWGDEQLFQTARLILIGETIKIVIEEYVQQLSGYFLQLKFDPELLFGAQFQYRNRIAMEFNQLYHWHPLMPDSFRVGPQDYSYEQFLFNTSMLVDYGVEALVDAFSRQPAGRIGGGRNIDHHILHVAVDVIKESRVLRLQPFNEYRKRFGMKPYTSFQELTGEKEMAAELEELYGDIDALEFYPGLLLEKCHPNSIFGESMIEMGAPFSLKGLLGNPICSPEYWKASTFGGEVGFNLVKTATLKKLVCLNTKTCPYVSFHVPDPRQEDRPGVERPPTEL", "assay": "COX-1 activity, 14C-arachidonic acid conversion, TLC", "format": "biochemical", "details": "for COX-1 enzyme activity (% of control values, mean ± SD): n = 3", "description": "COX-1 and COX-2 enzyme preparations were purchased from Cayman Chemicals. Preliminary studies established that 40 U of COX-1 or COX-2 could convert about 70% of ^14C-arachidonic acid (spec. act. 55 mCi/mmol, Ontario Isotopes, Ontario, Canada; 100,000 cpm were diluted with 0.5 μg unlabeled arachidonic acid (Cayman Chemicals)/1 ml assay) into products in vitro. Different amounts of PBT-3 (10 μg and 20 μg) were added and the conversion of AA into products was assessed during a 10 min reaction in 1 ml phosphate buffer at 37°. After extraction, products were assessed by TLC (silica gel G, ethyl acetate/acetic acid, 99/1, v/v). After development, the TLC plates were scanned for radioactive products with a Berthold TLC radiochromatogram scanner and the radioactivity was quantified by scraping zones of silica gel, placing in scintillation vials, elution with 1 ml methanol and addition of scintillation medium. Radioactivity was determined by conventional counting in a beta scintillation counter."}}}
{"smiles": "CCCCC/C=C\\CC1CC1[C@@H](O)/C=C\\C/C=C\\CCCC(=O)OC", "note": "(stereo partly drawn) [PBT-3, 10(S)-hydroxy-11,12-cyclopropyl-eicosa-5Z,8Z,14Z-trienoic acid methyl ester]", "values": [{"measurement": "inhibition of PGH2-evoked aggregation", "setting": "human platelets", "value": "inhibited the second wave of aggregation"}, {"measurement": "COX-1 enzyme activity (% of control values, mean ± SD)", "setting": "COX-1; PBT-3 3.00 μM", "value": "119.6 ± 14^NS % of control"}, {"measurement": "COX-1 enzyme activity (% of control values, mean ± SD)", "setting": "COX-1; PBT-3 30.0 μM", "value": "116.8 ± 11^NS % of control"}, {"measurement": "inhibition of COX-1, in words", "setting": "COX-1; relatively large amounts of PBT-3, about 3-4 log doses greater than required to inhibit the TP receptor", "value": "Neither COX-1, COX-2,12-LOX nor Plase A2 was inhibited"}]}
